Source: publication PMC11091072, “Targeting bacterial nickel transport with aspergillomarasmine A suppresses virulence-associated Ni-dependent enzymes” (Nature Communications, 2024)
Converted amounts (≈) assume the structure as drawn. “And” between values parts separate entries of the source, which are not always exact repeats. Identical values can stand only once. Like-named read-outs stand apart in the source and are kept apart here. Peptide text beside a SMILES is read from it. * marks the point of attachment. Cbz = O=C(OCc1ccccc1)*

Columns and labels:
[1] = test system: K. pneumoniae urease activity (whole cell); experiment: Checkerboard analysis of Zn-AMA and AHA on urease activity; type: cell-based, Klebsiella pneumoniae; conditions: Zn-AMA 0 μM
Experimental: To guide our exploration of the mode of action of Zn-AMA, we investigated whether a chemical-chemical interaction occurs with the urease inhibitor AHA. […] We subsequently performed inductively coupled plasma mass spectrometry (ICP-MS) analyses to evaluate the intracellular Ni^2+ and Zn^2+ content of K. pneumoniae.
K. pneumoniae whole-cell urease activity was determined with artificial urine containing 0.2% (w/v) casamino acids and 0.01% (w/v) phenol red in 96-well plates. For the growth of S. aureus in artificial urine, the medium was supplemented with 10% LB. After 20–24 hours of growth, bacteria were removed using 0.45 μm filter plates, and the final A550 of the medium was measured using a plate reader.
FIG S7 Evaluation of Zn-AMA as a direct inhibitor of urease. A) Checkerboard analysis of Zn-AMA and AHA on urease activity of K.
pneumoniae after growth for 24 h at 37 °C artificial urine. pH is represented by the color scale determined with phenol red. […]

[2] = test system: K. pneumoniae urease activity (whole cell); experiment: microbe, parasite or virus in culture; type: cell-based, Klebsiella pneumoniae ATCC 33495; conditions: for EC50: Klebsiella pneumoniae, read-out: EC50, half-maximal effective concentration required to suppress urease-dependent pH change; for K. pneumoniae urease-dependent pH change (pH): 37 °C
NikA [3] = type: binding, Klebsiella pneumoniae; conditions: 100 μM
K. pneumoniae = type: cell-based, Klebsiella pneumoniae; conditions: for Growth curve (culture density): 50 μM
HEK293 cells = experiment: HEK293 cytotoxicity assay (Cell Titer Glo 2.0)
NikA [4] = target: NikA (Klebsiella pneumoniae, UniProt A6TFA3); type: binding; conditions: for n (stoichiometry, ITC) / ∆H / −T∆S / ∆G: 37 °C; for n (stoichiometry, ITC) / ∆H / −T∆S / -∆TS / ∆G: pH 7.5; for -∆TS: Fig S13, 37 °C; for Kd: read-out: KD for NikA (ITC), 25 mM Tris-HCl, 150 mM NaCl, 0.1% Triton X-100, pH 7.5, 37 °C; for fold improvement of affinity for NikA: relative to Zn-AMA
[5] = test system: S. aureus urease activity (whole cell); type: cell-based, Staphylococcus aureus; conditions: S. aureus, artificial urine, 24 h
urease = target: T1, urease (Klebsiella pneumoniae subsp. pneumoniae, UniProt A6TE40+A6TE41+A6TE42); experiment: Urease activity in cell-free extracts (NH3 release, indophenol-hypochlorite); type: biochemical
T1 construct: endogenous in cells; host or cells: Klebsiella pneumoniae (ATCC 33495), sonicated and cleared lysate
Experimental: The cells were subsequently lysed by sonication, and cell debris was removed with centrifugation (20,000 × g, 10 min). […] Liberated NH3 was quantified using the indophenol-hypocholorite reaction as previously described. The total amount of protein was quantified by Bradford assay using bovine serum albumin as standard. Each assay was performed in duplicate wells.
FIG S7 Evaluation of Zn-AMA as a direct inhibitor of urease. A) Checkerboard analysis of Zn-AMA and AHA on urease activity of K. […]
Dose- […]
response curves of fluorofamide, Zn-AMA, and AMA inhibiting the urease-catalyzed release of NH3 quantified with indophenol hypochlorite. The rates of NH3 production were measured over 20 min and were normalized to total protein concentration. Experiments were performed in duplicate. Individual replicates are shown as colored circles.

[6] = K. pneumoniae, artificial urine, 24 h
[7] = K. pneumoniae, artificial urine

T1 sequence (A6TE41 whole entry): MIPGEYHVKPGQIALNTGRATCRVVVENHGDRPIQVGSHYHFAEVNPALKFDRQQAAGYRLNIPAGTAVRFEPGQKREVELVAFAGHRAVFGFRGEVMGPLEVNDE
T1 sequence (A6TE40 whole entry): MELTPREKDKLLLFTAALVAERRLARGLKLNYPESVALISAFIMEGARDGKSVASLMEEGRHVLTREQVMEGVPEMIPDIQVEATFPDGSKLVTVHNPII
T1 sequence (A6TE42 whole entry): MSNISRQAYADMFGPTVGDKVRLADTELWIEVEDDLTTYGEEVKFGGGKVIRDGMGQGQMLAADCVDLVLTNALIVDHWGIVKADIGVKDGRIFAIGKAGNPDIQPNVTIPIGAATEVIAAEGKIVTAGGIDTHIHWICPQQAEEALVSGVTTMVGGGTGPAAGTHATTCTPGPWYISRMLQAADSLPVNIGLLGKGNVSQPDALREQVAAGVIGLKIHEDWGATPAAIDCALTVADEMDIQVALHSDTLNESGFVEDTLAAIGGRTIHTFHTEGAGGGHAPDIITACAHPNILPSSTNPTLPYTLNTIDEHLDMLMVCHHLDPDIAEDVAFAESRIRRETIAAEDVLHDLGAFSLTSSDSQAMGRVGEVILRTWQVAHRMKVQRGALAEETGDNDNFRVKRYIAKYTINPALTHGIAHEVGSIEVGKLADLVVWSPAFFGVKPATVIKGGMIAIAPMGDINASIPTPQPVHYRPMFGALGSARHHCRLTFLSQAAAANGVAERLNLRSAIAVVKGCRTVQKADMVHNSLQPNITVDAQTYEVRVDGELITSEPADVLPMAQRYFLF
NikA (Klebsiella pneumoniae, UniProt A6TFA3), sequence (A6TFA3 entry or part of it): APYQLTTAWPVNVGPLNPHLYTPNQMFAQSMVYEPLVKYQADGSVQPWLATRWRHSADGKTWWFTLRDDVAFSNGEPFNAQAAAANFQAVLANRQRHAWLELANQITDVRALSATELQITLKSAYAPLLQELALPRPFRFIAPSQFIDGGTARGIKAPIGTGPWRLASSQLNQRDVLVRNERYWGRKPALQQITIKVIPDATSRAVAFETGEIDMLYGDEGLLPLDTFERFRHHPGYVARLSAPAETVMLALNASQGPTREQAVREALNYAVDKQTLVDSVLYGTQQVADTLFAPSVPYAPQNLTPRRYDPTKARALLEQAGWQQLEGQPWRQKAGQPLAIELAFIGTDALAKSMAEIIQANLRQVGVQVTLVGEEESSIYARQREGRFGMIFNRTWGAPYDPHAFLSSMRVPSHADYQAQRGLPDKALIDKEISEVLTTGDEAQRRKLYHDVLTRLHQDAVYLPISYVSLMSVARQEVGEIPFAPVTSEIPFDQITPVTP

CC(=O)NO [AHA, acetohydroxamic acid, reference compound]
Urease-dependent pH change (pH) ([1]; AHA 0.1 mM): 7.94
Urease-dependent pH change (pH) ([1]; AHA 0.2 mM): 8.07
Urease-dependent pH change (pH) ([1]; AHA 0.4 mM): 7.88
Urease-dependent pH change (pH) ([1]; AHA 0.5 mM): 8.25
Urease-dependent pH change (pH) ([1]; AHA 0.8 mM): 7.28
Urease-dependent pH change (pH) ([1]; AHA 1.6 mM): 6.77
concentration required to achieve similar urease suppression [2, 6]: 12.8 mM

[Cl-].[Cl-].[Co+2] [Co^2+, CoCl2]
effect on stability of recombinant NikA (NikA [3]): did not affect it

CC(=NO)C(C)=NO [DMG, dimethylglyoxime, reference compound]
Growth curve (culture density) (K. pneumoniae; 15.15 h): 0.125 and 0.12
Growth curve (culture density) (K. pneumoniae; 16.15 h): 0.131 and 0.126
Growth curve (culture density) (K. pneumoniae; 17.15 h): 0.14 and 0.136
growth with urea as sole nitrogen source (K. pneumoniae; Chelex-treated nitrogen-limited medium): did not

CC(C)C[C@@H](C=O)NC(=O)[C@H](CC(C)C)NC(=O)[C@H](CC(C)C)NC(=O)OCc1ccccc1 [MG132, reference compound] (Cbz-Leu-Leu-Leu-aldehyde)
IC50 (HEK293 cells; Homo sapiens, HEK293, 48 h, read-out: IC50 (HEK293 viability)): 0.144 µg/mL (≈ 0.303 µM)
HEK 293T cytotoxicity assay raw signal (HEK293 cells; MG-132 0.06 μg/mL): 553546 and 645337 and 439066
HEK 293T cytotoxicity assay raw signal (HEK293 cells; MG-132 0.12 μg/mL): 287630 and 290638 and 251825
HEK 293T cytotoxicity assay raw signal (HEK293 cells; MG-132 0.24 μg/mL): 228174 and 211174 and 145724
HEK 293T cytotoxicity assay raw signal (HEK293 cells; MG-132 0.49 μg/mL): 127375 and 103739 and 100640
HEK 293T cytotoxicity assay raw signal (HEK293 cells; MG-132 0.98 μg/mL): 76026 and 78297 and 72041
HEK 293T cytotoxicity assay raw signal (HEK293 cells; MG-132 1.95 μg/mL): 47803 and 50917 and 47518
HEK 293T cytotoxicity assay raw signal (HEK293 cells; MG-132 7.81 μg/mL): 52239 and 45457 and 61991
HEK 293T cytotoxicity assay raw signal (HEK293 cells; MG-132 15.63 μg/mL): 62587 and 49620 and 71962
HEK 293T cytotoxicity assay raw signal (HEK293 cells; MG-132 31.25 μg/mL): 50870 and 51533 and 85262

[Cl][Ni][Cl] [Ni^2+, NiCl2]
effect on stability of recombinant NikA (NikA [3]): did not affect it

NC(=O)C[C@H](NC[C@H](NC[C@H](N)C(=O)O)C(=O)O)C(=O)O.[Zn+2] [Zn-AMA(Asn)]
n (stoichiometry, ITC) (NikA [4]): 1.14
∆H (NikA [4]): -13.1 kcal/mol
−T∆S (NikA [4]): 4.7 kcal/mol
-∆TS (NikA [4]): 4.73
Kd (NikA [4]): 1.3 ± 0.1 µM
fold improvement of affinity for NikA (NikA [4]): 7 fold
Urease-dependent pH change (pH) [2]: 7.81 and 7.93 and 7.88 and 7.95
EC50 [2, 7]: 24 ± 6 µM
Urease-dependent pH change (pH) ([2]; Zn-AMA(Asn) 0.19 μM): 7.83 and 7.99
Urease-dependent pH change (pH) ([2]; Zn-AMA(Asn) 0.39 μM): 7.94 and 7.95
Urease-dependent pH change (pH) ([2]; Zn-AMA(Asn) 3.12 μM): 7.74 and 7.82
Urease-dependent pH change (pH) ([2]; Zn-AMA(Asn) 6.25 μM): 7.67 and 7.74
Urease-dependent pH change (pH) ([2]; Zn-AMA(Asn) 12.5 μM): 7.43 and 7.67
Urease-dependent pH change (pH) ([2]; Zn-AMA(Asn) 25 μM): 7.11 and 7.36
Urease-dependent pH change (pH) ([2]; Zn-AMA(Asn) 50 μM): 6.62 and 7.12
Urease-dependent pH change (pH) ([2]; Zn-AMA(Asn) 100 μM): 6.33 and 6.91
Urease-dependent pH change (pH) ([2]; Zn-AMA(Asn) 200 μM): 6.43 and 6.83

N[C@@H](CN[C@@H](CN[C@@H](Cc1cnc[nH]1)C(=O)O)C(=O)O)C(=O)O.[Zn+2] [Zn-AMA(His)]
n (stoichiometry, ITC) (NikA [4]): 0.76
∆H (NikA [4]): -13.1 kcal/mol
−T∆S (NikA [4]): 4.5 kcal/mol
-∆TS (NikA [4]): 4.48
Kd (NikA [4]): 0.8 ± 0.1 µM
fold improvement of affinity for NikA (NikA [4]): 7 fold
Urease-dependent pH change (pH) [2]: 7.86 and 7.89 and 7.93 and 7.91
EC50 [2, 7]: > 200 µM
Urease-dependent pH change (pH) ([2]; Zn-AMA(His) 0.19 μM): 7.92 and 7.89
Urease-dependent pH change (pH) ([2]; Zn-AMA(His) 0.39 μM): 7.95 and 7.91
Urease-dependent pH change (pH) ([2]; Zn-AMA(His) 3.12 μM): 7.87 and 7.86
Urease-dependent pH change (pH) ([2]; Zn-AMA(His) 6.25 μM): 7.78 and 7.90
Urease-dependent pH change (pH) ([2]; Zn-AMA(His) 12.5 μM): 7.75 and 7.83
Urease-dependent pH change (pH) ([2]; Zn-AMA(His) 25 μM): 7.73 and 7.87
Urease-dependent pH change (pH) ([2]; Zn-AMA(His) 50 μM): 7.68 and 7.86
Urease-dependent pH change (pH) ([2]; Zn-AMA(His) 100 μM): 7.57 and 7.81
Urease-dependent pH change (pH) ([2]; Zn-AMA(His) 200 μM): 7.66 and 7.82

N[C@@H](CN[C@@H](CC(=O)O)C(=O)O)C(=O)O.[Zn+2] [Zn-Toxin A]
n (stoichiometry, ITC) (NikA [4]): 1.15
∆G (NikA [4]): -7.4 kcal/mol
∆H (NikA [4]): -9.6 kcal/mol
−T∆S (NikA [4]): 2.2 kcal/mol
∆G (NikA [4]; listed as Zn-toxin A): -7.41 kcal/mol
∆H (NikA [4]; listed as Zn-toxin A): -9.61 kcal/mol
-∆TS (NikA [4]): 2.20
Kd (NikA [4]): 6 ± 0.8 µM
Urease-dependent pH change (pH) ([2]; Zn-Toxin A 0.19 μM): 7.83 and 7.80
Urease-dependent pH change (pH) ([2]; Zn-Toxin A 0.39 μM): 7.83 and 7.88
Urease-dependent pH change (pH) ([2]; Zn-Toxin A 0.78 μM): 7.88 and 7.78
Urease-dependent pH change (pH) ([2]; Zn-Toxin A 1.56 μM): 7.66 and 7.81
Urease-dependent pH change (pH) ([2]; Zn-Toxin A 3.12 μM): 7.79 and 7.72
Urease-dependent pH change (pH) ([2]; Zn-Toxin A 6.25 μM): 7.83 and 7.77
Urease-dependent pH change (pH) ([2]; Zn-Toxin A 12.5 μM): 7.84 and 7.79
Urease-dependent pH change (pH) ([2]; Zn-Toxin A 25 μM): 7.79 and 7.82
Urease-dependent pH change (pH) ([2]; Zn-Toxin A 50 μM): 7.77 and 7.81
Urease-dependent pH change (pH) ([2]; Zn-Toxin A 100 μM): 7.79 and 7.77
Urease-dependent pH change (pH) ([2]; Zn-Toxin A 200 μM): 7.66 and 7.69

[Cl-].[Cl-].[Zn+2] [ZnCl2, reference compound]
effect on urease activity [5]: did not affect urease activity
K. pneumoniae urease-dependent pH change (pH) ([2]; 0.39 μM, artificial urine, 24 h): 8.18 and 8.29
K. pneumoniae urease-dependent pH change (pH) ([2]; 0.78 μM, artificial urine, 24 h): 8.27 and 8.39
K. pneumoniae urease-dependent pH change (pH) ([2]; 1.56 μM, artificial urine, 24 h): 8.17 and 8.34
K. pneumoniae urease-dependent pH change (pH) ([2]; 3.12 μM, artificial urine, 24 h): 8.20 and 8.42
K. pneumoniae urease-dependent pH change (pH) ([2]; 6.25 μM, artificial urine, 24 h): 8.19 and 8.30
K. pneumoniae urease-dependent pH change (pH) ([2]; 12.5 μM, artificial urine, 24 h): 8.23 and 8.21
K. pneumoniae urease-dependent pH change (pH) ([2]; 25 μM, artificial urine, 24 h): 8.25 and 8.11
K. pneumoniae urease-dependent pH change (pH) ([2]; 50 μM, artificial urine, 24 h): 8.14 and 8.06
K. pneumoniae urease-dependent pH change (pH) ([2]; 100 μM, artificial urine, 24 h): 8.06 and 8.01
K. pneumoniae urease-dependent pH change (pH) ([2]; 200 μM, artificial urine, 24 h): 7.51 and 7.49
effect on urease activity [2, 6]: did not affect urease activity
effect on stability of recombinant NikA (NikA [3]): stabilized NikA

NP(N)(=O)NC(=O)c1ccc(F)cc1 [fluorfamide, reference compound]
Specific activity (cell-free indophenol urease assay) (urease; Fluorofamide 0.000122 mM): 36.97 nmol/min/mg and 30.98 nmol/min/mg
Specific activity (cell-free indophenol urease assay) (urease; Fluorofamide 0.000244 mM): 36.32 nmol/min/mg and 35.04 nmol/min/mg
Specific activity (cell-free indophenol urease assay) (urease; Fluorofamide 0.000488 mM): 34.40 nmol/min/mg and 35.26 nmol/min/mg
Specific activity (cell-free indophenol urease assay) (urease; Fluorofamide 0.000977 mM): 30.98 nmol/min/mg and 33.12 nmol/min/mg
Specific activity (cell-free indophenol urease assay) (urease; Fluorofamide 0.001953 mM): 25.00 nmol/min/mg and 23.72 nmol/min/mg
Specific activity (cell-free indophenol urease assay) (urease; Fluorofamide 0.003906 mM): 16.88 nmol/min/mg
Specific activity (cell-free indophenol urease assay) (urease; Fluorofamide 0.007813 mM): 7.48 nmol/min/mg and 7.26 nmol/min/mg
Specific activity (cell-free indophenol urease assay) (urease; Fluorofamide 0.015625 mM): 2.56 nmol/min/mg and 2.35 nmol/min/mg
Specific activity (cell-free indophenol urease assay) (urease; Fluorofamide 0.03125 mM): 0.85 nmol/min/mg and 0.64 nmol/min/mg
Specific activity (cell-free indophenol urease assay) (urease; Fluorofamide 0.0625 mM): 0.21 nmol/min/mg
